Values quoted from earlier work in patent US20050154058A1, “Method of preparing hydroxytyrosol esters, esters thus obtained and use of same” (priority 2002, published 2005).

Experiments:
[1] = state of the art, compared in words with free hydroxytyrosol or usual additives
[2] = state of the art

SMILES	antioxidant activity / protective capacity against oxidation [1]	solubility in lipophilic medium [2]
CC(=O)OCCc1ccc(O)c(O)c1 [Example 1, 2-(3,4-dihydroxyphenyl)ethyl Acetate]	the same activity towards oxidation as does free hydroxytyrosol itself	liposoluble
OCCc1ccc(O)c(O)c1 [Hydroxytyrosol, 2-(3,4-dihydroxyphenyl)ethanol]	much greater than the antioxidant additives normally used	virtually insoluble in lipophilic medium
